Assays:
[1] = biological target: DEC205 receptor (mouse), on splenic CD11c+ dendritic cells of SJL mice (mouse) (UniProt Q60767); assay: cell-based or functional assay
[2] = in vivo; cited from earlier work
[3] = system: relapsing-remitting forms of MS; conditions: cited from earlier work
[4] = system: patients with secondary progressive MS; conditions: weekly s.c. 3 or 10 mg; 50 patients; cited from earlier work
[5] = system: PLP139-151-induced EAE in recipient SJL mice; assay: Adoptive transfer of CD4+ T cells from preimmunized SJL mice, then EAE induction in recipients; format: in vivo, mouse; conditions: donors coimmunized with 500 μg copolymer
Description: SJL mice were preimmunized on day 10 i.p. with each of 1 μg fusion monoclonal antibodies: DEC205-PLP-specific (closed diamonds; αDEC205/PLP mAb CD4^+ T cells) or control GL117-PLP-specific (closed squares; GL117/PLP mAb CD4^+ T cells), or control treatment with 500 μg of the synthetic amino acid copolymer (poly (F,Y,A,K)n; closed light gray circles; PLP139-151+FYAK CD4^+ T cells) or no treatment (closed triangles). The 5×10^6 CD4+ T cells, enriched splenocytes obtained from preimmunized mice, were adoptively transferred i.v. into the tail veins of non-treated mice, followed by immunization on day 1 with 75 μg of PLP139-151 in CFA and PT i.v. the following day. Controls received PBS injections. Mean disease scores of five mice/group are shown. […]
SJL mice herein were preimmunized at day 10 i.p. with 1 μg of DEC205-PLP specific monoclonal antibodies (closed diamonds; αDEC205/PLP mAb) only or not treated (closed triangles) in a control group. Mice were monitored for clinical signs of EAE for 30 days. […]
SJL/J mice were preimmunized (day 10, 15, or 20) with 1 μg i.p. of fusion monoclonal antibodies (DEC205-PLP specific monoclonal antibodies, DEC205-HA specific monoclonal antibodies, DEC205 specific monoclonal antibodies alone, or GL117-PLP specific monoclonal antibodies). […] The mice were scored daily for 30 days. […]

[6] = system: Experimental Autoimmune Encephalomyelitis (EAE, the mouse model of MS); conditions: compared with Copaxone; cited from earlier work

UniProt Q60767, sequence (Q60767 28-1723): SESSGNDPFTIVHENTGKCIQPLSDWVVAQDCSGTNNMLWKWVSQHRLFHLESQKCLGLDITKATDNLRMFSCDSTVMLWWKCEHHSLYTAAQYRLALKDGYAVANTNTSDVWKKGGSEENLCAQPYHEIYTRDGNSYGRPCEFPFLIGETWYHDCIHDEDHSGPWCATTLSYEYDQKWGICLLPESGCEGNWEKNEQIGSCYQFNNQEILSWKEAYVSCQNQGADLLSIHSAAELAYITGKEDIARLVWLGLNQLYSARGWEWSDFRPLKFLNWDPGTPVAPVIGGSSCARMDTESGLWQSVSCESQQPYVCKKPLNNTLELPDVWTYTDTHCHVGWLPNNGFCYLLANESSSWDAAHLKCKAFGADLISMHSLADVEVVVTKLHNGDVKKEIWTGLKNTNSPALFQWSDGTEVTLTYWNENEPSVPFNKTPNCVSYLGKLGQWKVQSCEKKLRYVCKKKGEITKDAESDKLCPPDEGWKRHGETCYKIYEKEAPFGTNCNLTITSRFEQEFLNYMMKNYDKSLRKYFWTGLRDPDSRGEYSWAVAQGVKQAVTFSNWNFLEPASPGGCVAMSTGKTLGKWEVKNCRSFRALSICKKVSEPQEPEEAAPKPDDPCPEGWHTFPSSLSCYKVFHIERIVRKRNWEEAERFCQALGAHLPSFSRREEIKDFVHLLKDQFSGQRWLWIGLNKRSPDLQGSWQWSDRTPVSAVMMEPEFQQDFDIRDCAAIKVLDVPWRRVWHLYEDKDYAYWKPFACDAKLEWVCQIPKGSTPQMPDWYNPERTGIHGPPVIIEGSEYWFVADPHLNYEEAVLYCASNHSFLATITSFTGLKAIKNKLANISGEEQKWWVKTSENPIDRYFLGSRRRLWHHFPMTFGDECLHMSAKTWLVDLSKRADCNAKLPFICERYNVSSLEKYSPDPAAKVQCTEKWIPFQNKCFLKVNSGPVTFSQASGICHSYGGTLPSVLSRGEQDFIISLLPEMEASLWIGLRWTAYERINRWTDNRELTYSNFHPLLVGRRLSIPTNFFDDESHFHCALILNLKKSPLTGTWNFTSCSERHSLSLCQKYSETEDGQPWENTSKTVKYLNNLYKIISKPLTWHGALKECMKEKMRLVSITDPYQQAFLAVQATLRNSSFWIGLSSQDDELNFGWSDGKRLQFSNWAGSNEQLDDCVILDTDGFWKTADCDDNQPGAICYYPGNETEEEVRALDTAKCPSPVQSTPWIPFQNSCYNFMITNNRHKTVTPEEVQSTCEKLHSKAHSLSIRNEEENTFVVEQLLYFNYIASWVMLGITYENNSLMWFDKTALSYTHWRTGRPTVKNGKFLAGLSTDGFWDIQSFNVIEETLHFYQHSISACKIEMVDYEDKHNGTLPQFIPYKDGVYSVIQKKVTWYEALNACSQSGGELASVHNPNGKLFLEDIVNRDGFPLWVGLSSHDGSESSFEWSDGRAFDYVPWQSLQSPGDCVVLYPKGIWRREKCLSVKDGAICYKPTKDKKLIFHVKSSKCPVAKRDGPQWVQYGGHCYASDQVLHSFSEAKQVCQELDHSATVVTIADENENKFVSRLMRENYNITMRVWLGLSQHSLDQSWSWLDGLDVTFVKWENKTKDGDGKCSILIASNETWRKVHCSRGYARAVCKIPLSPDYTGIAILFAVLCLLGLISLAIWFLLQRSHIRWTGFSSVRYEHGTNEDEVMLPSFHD

For “anti-DEC205-PLP139-151 fusion monoclonal antibody (cloned NLDC-145 with PLP139-151 fused to the C terminus of the Ig heavy chain)”, the IFN-γ secretion in day 3 coculture supernatants (cytokine bead array) [1] was 10 fold.

In the case of poly(Y, E, A, K)n [Copaxone ®], the side effects [2] is given as “severe injection” and the “reduction of relapse rate” value [3] is given as 30%.

In the case of poly (F,Y,A,K)n [FYAK], the “number of Gadolinium-enhancing lesions” value [4] is given as “severely reduce”, the “EAE induction in recipients of CD4+ T cells” value [5] is given as “efficiently prevented EAE induction” and the “effectiveness in treatment of EAE” value [6] is given as “far more effective than Copaxone”.

Source: patent publication US20120276049A1, “Methods and compositions for amelioration of autoimmune disease using fusion proteins of anti-dendritic cell receptor antibody to peptide sequences” (President and Fellows of Harvard College, priority 2009, published 2012)
